In patent US20040235900A1, “Antimicrobial oxazolifinones with improved pharmacokinetic profile and safety advantages” (priority 2002, published 2004):
Values after ≈ are worked out from the molar mass of the structure shown.

Assays:
[1] = test system: Methicillin Resistant Staphylococcus aureus MRSA-32; assay: In-vitro MIC test (agar dilution), MRSA-32; format: cell-based; settings: Staphylococcus aureus, MRSA; Mueller Hinton agar, 24 hrs at 35° C.; read-out: Minimum Inhibitory Concentrations (MIC) MRSA-32
Excerpt: (§1) The test methods used for verifying the antimicrobial action of compound within the scope of this invention are essentially the same as those described in PCT WO 95/25106, U.S. Pat. No. 5,668,286 and EP 0 750, 618 B1, with the difference that the strains of the organisms used for the MIC determinations in these patents and applications are Staphylococcus aureus ATCC 25923, Staphylococcus epidermidis ATCC 12828, Streptococcus pyogenes ATCC 19615.
(§2) The in-vitro MIC methods of test compounds were determined essentially as described in PCT WO 95/25106, U.S. Pat. No. 5,668,286 and EP 0 750 618 B1.
(§3) Overnight grown cultures of S. aureus organisms in Tryptic Soya broth were diluted in Mueller Hinton Broth to give optical density matching with MacFarland tube 0.5 standard. Cultures were further diluted 1:10 in Mueller Hinton broth. Using Denley's mutipoint inoculator, 10^4 cells were deposited on Mueller Hinton agar (Difco) containing range of 2 fold dilutions of test compounds. These plates were incubated for 24 hrs at 35° C. and MIC results recorded. MIC is defined as minimum drug concentration that inhibits test organisms. For determining MIC of test compounds against Streptococcus pneumoniae, Mueller Hinton agar containing 5% sheep blood was employed.

[2] = test system: Enterococcus faecalis ATCC 29212; assay: In-vitro MIC test (agar dilution), E. faecalis; format: cell-based; settings: ATCC29212, Mueller Hinton agar, 24 hrs at 35° C., read-out: Minimum Inhibitory Concentrations (MIC) E. faecalis
Excerpt: as §1, §2, §3

[3] = test system: Streptococcus pneumoniae ATCC 49619; assay: In-vitro MIC test (agar dilution, 5% sheep blood), S. pneumoniae; format: cell-based; settings: ATCC49619, Mueller Hinton agar containing 5% sheep blood, read-out: Minimum Inhibitory Concentrations (MIC) S. pneumoniae
Excerpt: as §1, §2, §3

[4] = Pharmacokinetic study, single oral dose in beagle dog; format: in vivo; settings: serum, single oral dose 5 mg/kg p.o., Compound No. 4 and linezolid in 5% Tween, other compounds in cyclodextrin; for AUC(0-t): read-out: AUC (0-24 hr); for concentration at 12 hr: read-out: C-12 hr
Protocol: Oral (5 mg/kg) and intravenous (5 mg/kg bolus) pharmacokinetic studies were done in dog. Blood samples were collected at time points of 0, 0.08 (not for oral), 0.25, 0.50, 1.0, 1.5, 2.0, 3.0, 4.0, 5.0, 6.0, 8.0, 10.0, 12.0 and 24.0 hours. To facilitate i.v. dosing and collection of blood samples, the dogs were implanted with cannula in cephalic vein. Serum obtained from blood samples was used for HPLC-based analysis.
Serum samples were extracted by solid phase extraction technique using Water's OASIS HLB cartridges. An HPLC-Diode array detection system was used for analysis. Prepared samples were chromatographed on a YMC-AM reversed phase column (150×4.6 mm ID; 5 μm) using an isocratic mobile phase acetate buffer (50 mmol ammonium acetate pH 6.6) acetonitrile, 66:34% v/v (for a representative compound of the invention, 68:32% v/v for compound Nos. 30, 3, 7 and 11 of U.S. Pat. No. 5,668,286, and 75:25% v/v for linezolid) at a flow rate of 1 ml/min, measured at λmax 254 nm. Independently prepared analytical standards and quality control samples were analyzed with each set of unknown samples.
The pharmacokinetics of a representative compound of the invention following single oral dose administration of the compound in beagle dog is shown in Table 2.

[5] = Myelosuppressive potential: spleen and thymus relative weights, 14-day oral dosing; format: in vivo, Wistar rats
Excerpt: Compound No.30 of U.S. Pat. […] Vehicle treated controls were maintained using identical experimental conditions. The treated as well as control rats were sacrificed 24 hr after the last dose. One parameter measured was the spleen to body weight ratio and thymus to body weight ratio in treated versus control animals. The spleen and thymus were trimmed free of fat and other contiguous organs/tissues and were weighed in an analytical balance (Sartorious BP 210). The spleen to terminal body weight ratio and the thymus to terminal body weights ratio was calculated to provide the respective relative weights. The ratio value of the respective relative weight of a treated animal versus the relative weight of a control animal is provided in Table 4. The myelosuppressive potential of a compound is inversely proportional to the ratio value. […] Values in each of the first two columns above represent ratio of relative weight (calculated organ to body weight ratio) of spleen or thymus in drug treated animals v/s control animals. […] The “[…]” column provides ratio of percentage reticulocytes in treated v/s percentage reticulocytes in control rats.

[6] = Wistar rats, oral, 14 consecutive days, 50 mg/kg per day (LNZ 2×25 mg/kg per day), ratio less than 0.75 indicates myelosuppressive potential

MIC [1] [µg/mL] | MIC [2] [µg/mL] | MIC [3] [µg/mL] | half-life [4] [h] | AUC(0-t) [4] [ng·h/mL] | Cmax [4] [ng/mL] | concentration at 12 hr [4] [ng/mL] | myelosuppressive potential (in words) ([5]; rat, in vivo) | SMILES | Relative Weights Ratio Spleen (spleen weight/body weight of treated animal versus control animal) [5, 6] | Relative Weights Ratio Thymus (thymus weight/body weight of treated animal versus control animal) [5, 6]
2 (≈ 5.93 µM) | 2 (≈ 5.93 µM) | 0.5 (≈ 1.48 µM) | 2.42 ± 0.17 | 22800 ± 2170 | 5700 ± 690 | 0 | – | CC(=O)NC[C@H]1CN(c2ccc(N3CCOCC3)c(F)c2)C(=O)O1 [Linezolid] | 0.46 | 0.46
2 (≈ 5.34 µM) | 2 (≈ 5.34 µM) | 1 (≈ 2.67 µM) | 10.8 ± 2.45 | 71560 ± 250 | 5660 ± 1490 | 2840 ± 170 | no or lower myelosuppressive potential | CC(=O)NC[C@H]1CN(c2ccc(N3CCC(CC#N)CC3)c(F)c2)C(=O)O1 [Compound 4, (S)-N-{3-[4-(4-cyanomethyl-piperidin-1-yl)-3-fluoro-phenyl]-2-oxo-oxazolidin-5-ylmethyl}-acetamide] | – | –
